Results on one compound are retold here after patent US5977075A, “N-aroylamino acid amides as endothelin inhibitors” (Novartis AG, priority 1997, dated 1999).

The target of one assay is T1, ETB (Canis lupus familiaris, UniProt P56497).
T1 construct: from tissue; host or cells: saphenous vein segments from mongrel dogs
T1 sequence (P56497 27-442): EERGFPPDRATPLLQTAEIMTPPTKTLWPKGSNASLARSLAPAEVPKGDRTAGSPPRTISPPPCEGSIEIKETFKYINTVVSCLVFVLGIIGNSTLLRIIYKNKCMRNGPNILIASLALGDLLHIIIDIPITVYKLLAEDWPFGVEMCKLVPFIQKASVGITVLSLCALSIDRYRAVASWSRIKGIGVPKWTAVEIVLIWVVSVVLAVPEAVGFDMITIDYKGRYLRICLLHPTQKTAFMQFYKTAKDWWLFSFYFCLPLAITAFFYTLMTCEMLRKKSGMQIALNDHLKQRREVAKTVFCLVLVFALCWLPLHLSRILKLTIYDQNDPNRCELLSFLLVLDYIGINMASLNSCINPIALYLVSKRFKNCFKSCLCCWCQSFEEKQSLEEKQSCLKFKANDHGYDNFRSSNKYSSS
Nature of the assay: Isolated tissue study, isometric tension, dog saphenous veins. The conditions noted are these: antagonist added 30 minutes prior to ET-1 or STX6c. Also on record: species or system mongrel dogs. The procedure:
(§1) 2. Isolated Tissue Studies
(§2) Studies measuring isometric tension are carried out according to the procedure of Shetty et al. (Biochem. Biophys. Res. Comm. 1993; 191:459-464). Saphenous veins (for antagonism of ETB) are obtained from mongrel dogs which are anesthetized with pentobarbital. Thoracic aortas are obtained from Sprague-Dawley male rats (for antagonism of ETA). Coronary arteries are obtained from porcine hearts. Tissue segments (4-5 mm) from each vascular preparation are equilibrated for 90 minutes during which time the tissues are adjusted to a preload tension of 2 gm, except for the porcine coronary which is adjusted to 4 gm preload. Concentration-response curves are generated by the cumulative addition of the peptides. Antagonists are added 30 minutes prior to the addition of ET-1 or STX6c. Contractions are expressed as a percentage of the response to […] KCl. Relaxation is quantitated by expressing the tension after relaxation as a percent of the tension induced by 1 mM phenylephrine.

In another assay the target is T2, ETA (Rattus norvegicus, UniProt P26684).
T2 construct: from tissue; host or cells: thoracic aorta segments from Sprague-Dawley male rats
T2 sequence (P26684 21-426): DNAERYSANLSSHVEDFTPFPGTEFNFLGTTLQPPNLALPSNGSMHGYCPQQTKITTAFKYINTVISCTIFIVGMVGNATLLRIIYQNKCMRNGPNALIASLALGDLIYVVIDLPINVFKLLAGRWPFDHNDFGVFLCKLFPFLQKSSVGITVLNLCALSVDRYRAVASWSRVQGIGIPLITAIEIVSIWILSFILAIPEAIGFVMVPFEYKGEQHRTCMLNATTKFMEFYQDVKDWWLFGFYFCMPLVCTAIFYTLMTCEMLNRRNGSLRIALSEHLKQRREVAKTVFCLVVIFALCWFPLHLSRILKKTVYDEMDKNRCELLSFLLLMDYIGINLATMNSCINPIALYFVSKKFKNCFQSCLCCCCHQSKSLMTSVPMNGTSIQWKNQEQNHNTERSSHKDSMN
Briefly: Isolated tissue study, isometric tension, thoracic aorta. Also on record: species or system Sprague-Dawley male rats. The conditions noted are these: antagonist added 30 minutes prior to ET-1 or STX6c. The procedure: as §1, §2

In a further assay the target is T3, human ETA (Homo sapiens, UniProt P25101).
T3 construct: expressed in transfected cells; host or cells: CHO (Chinese hamster ovary) cells, membrane preparation
T3 sequence (P25101 21-427): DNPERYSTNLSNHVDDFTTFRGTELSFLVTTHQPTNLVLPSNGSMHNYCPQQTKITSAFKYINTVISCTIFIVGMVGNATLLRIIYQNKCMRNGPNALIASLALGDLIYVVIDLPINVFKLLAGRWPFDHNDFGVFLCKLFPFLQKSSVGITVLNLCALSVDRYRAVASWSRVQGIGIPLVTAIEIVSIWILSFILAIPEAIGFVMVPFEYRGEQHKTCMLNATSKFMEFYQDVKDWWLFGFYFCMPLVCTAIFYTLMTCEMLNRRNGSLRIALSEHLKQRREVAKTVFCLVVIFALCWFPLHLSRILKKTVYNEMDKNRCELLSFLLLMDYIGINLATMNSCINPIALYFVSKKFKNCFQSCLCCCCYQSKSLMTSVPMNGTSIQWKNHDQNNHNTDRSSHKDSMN
Briefly: Competition binding of [125I] ET-1 to CHO-ETA membranes. The following applies: [125I] ET-1, 2 hours at 37° C. The method, then: (§3) 1. Binding Studies--ETA and ETB ;
(§4) Chinese hamster ovary cells expressing human ETA (CHO-ETA) or ETB (CHO-ETB) receptors are cultured in F12 medium (cibcoBRL, Grand Island, N.Y.) containing 10% fetal bovine serum and 1× antibiotic-antimycotic (GibcoBRL). Cells are harvested, then centrifuged, and finally homogenized in buffer containing 1 mM EDTA and […] Tris, pH 8.0. The cell debris is removed by brief centrifugation, and then the supernatant centrifuged again at 50,000×g for 10 minutes. The resulting pellet is resuspended in Hanks' balanced salt solution at a protein concentration of […] and stored in aliquots at -80° C. Competition binding is carried out by in incubating 0.2-1.0 mg of membrane protein from CHO-ETA or CHO-ETB cells with 12,000 cpm [^125 I] ET-1 (New England Nuclear, Boston, Mass.) with or without the competing ligand for 2 hours at 37° C. in a buffer containing 0.2 mg/ml bovine serum albumin, 0.002% Triton X-100, 0.02% NaN3, and […] Tris, pH 7.0. The reaction is terminated by filtration through a cell harvester (Brandel, Gaitherburg, Md.) using GF/C filters. Triplicate samples are carried out in each experiment, and if appropriate, the full dose-response curve for each competing ligand is performed at least three times. […]

For a further assay, the target named is T4, human ETB (Homo sapiens, UniProt P24530).
T4 construct: expressed in transfected cells; host or cells: CHO (Chinese hamster ovary) cells, membrane preparation
T4 sequence (P24530 27-442): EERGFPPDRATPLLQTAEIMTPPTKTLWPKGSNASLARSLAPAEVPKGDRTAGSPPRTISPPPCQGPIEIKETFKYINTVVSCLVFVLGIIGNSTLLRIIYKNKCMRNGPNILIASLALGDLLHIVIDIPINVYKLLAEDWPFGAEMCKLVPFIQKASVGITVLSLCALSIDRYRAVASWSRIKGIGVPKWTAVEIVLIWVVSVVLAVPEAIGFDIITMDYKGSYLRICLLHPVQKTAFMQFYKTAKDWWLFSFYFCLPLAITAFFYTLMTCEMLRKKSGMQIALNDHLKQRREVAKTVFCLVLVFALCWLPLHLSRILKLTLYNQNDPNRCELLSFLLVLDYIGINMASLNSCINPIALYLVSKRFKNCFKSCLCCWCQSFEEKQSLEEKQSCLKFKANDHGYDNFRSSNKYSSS
Briefly: Competition binding of [125I] ET-1 to CHO-ETB membranes. The conditions noted are these: [125I] ET-1, 2 hours at 37° C. The procedure:
as §3, §4

Some results are limits rather than exact numbers.

A word on the IC50: it is the concentration at which inhibition is half-maximal. Turning to `CCCCS(=O)(=O)NC(=O)C1(NC(=O)[C@@H](Cc2ccc(-n3cccc3)cc2)N(C)C(=O)c2cc(C)cc(C)c2)CC1` [example 1, R-N-[N-3,5-dimethylbenzoyl-N-methyl-3-[4-(1-pyrrolyl)phenyl]alanyl]-1-aminocyclo propane-1-N-(n-butanesulfonyl)carboxamide], the “ET-induced contractile response in dog saphenous veins” value on ETB is reported as “inhibit ET-induced contractile response”. In addition, the “ET-induced contractile response in thoracic aorta” value on ETA is recorded as “inhibit ET-induced contractile response”. Further, the IC50 at human ETA and at human ETB was below 1 nM each time.
